From patent US20110251238A1, “PPAR AGONIST COMPOSITIONS AND METHODS OF USE” (BIOPHARMED, priority 2008, published 2011)

Experiments:
[1] = tested on: SKMEL28 (human melanoma); test: Growth inhibition, MTT colorimetric assay, SKMEL-28; type: cell-based; details: Homo sapiens, SK-MEL-28, 72 h; melanoma; 3 days with drug; means of six values; unit inferred; read-out: IC50 SKMEL-28
Method in brief: (§1)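 Growth inhibition: cells cultured with drug 3 days, then MTT colorimetric readout. Cytotoxic activity given as IC50.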

[2] = tested on: U138 MG (human glioma); test: Growth inhibition, MTT colorimetric assay, U138; type: cell-based; details: Homo sapiens, U138-MG, 72 h; glioma; 3 days with drug; means of six values; unit inferred; read-out: IC50 U138
Method in brief: (§2)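 Reported IC50 values average six determinations, with standard error under 5% relative to the mean. Inhibition was scored by MTT after a 3-day culture with the drugs.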

[3] = tested on: PC3 (human prostate cancer); test: Growth inhibition, MTT colorimetric assay, PC3; type: cell-based; details: Homo sapiens, 72 h; carcinoma; 3 days with drug; means of six values; unit inferred; read-out: IC50 PC3
Procedure: (§3) Compounds that met the criteria for activity on KB3 cells were further tested for drug growth inhibitory activity in 5 carcinoma, 6 glioma and 3 melanoma cell lines, shown in Table 4. A549 (human lung adenocarcinoma epithelial), BxPC3 (pancreatic cancer), LoVo (colon cancer), MCF-7 (epithelial breast cancer), PC3 (human prostate cancer), Hs683 (human glioma), T98G (glioblastoma), U373 (human glioblastoma-astrocytoma), U138 MG (human glioma), epithelial-like), SKMEL28 (human melanoma), B16-F10 (mouse melanoma) and RhTP (rhabdomyosarcoma) cell lines were cultured in presence of the drugs for 3 days. The cytotoxic activity is expressed as (IC50). Inhibition of cell proliferation measured by the MTT colorimetric assay. The values reported in Table 4 are means of six distinct values. The standard errors are <5% as compared to the mean values.

[4] = tested on: Host; test: Growth inhibition, MTT colorimetric assay, Host; type: cell-based; details: 72 h; 3 days with drug; means of six values; unit inferred; read-out: IC50 Host
Method in brief: as §1

[5] = tested on: MCF-7 (epithelial breast cancer); test: Growth inhibition, MTT colorimetric assay, MCF7; type: cell-based; details: Homo sapiens, MCF7, 72 h; carcinoma; 3 days with drug; means of six values; unit inferred; read-out: IC50 MCF7
Procedure: as §3, with “A549” for “Compounds that met the criteria for activity on KB3 cells were further tested for drug growth inhibitory activity in 5 carcinoma, 6 glioma and 3 melanoma cell lines, shown in Table 4. A549”, “values.” for “values. The standard errors are <5% as compared to the mean values.”

[6] = tested on: caspases 9; test: Caspases 9 activation in HL60 cells (LEHD reagent); type: cell-based, human; details: 48 hours, 1 μM, 0.1 μM and 0.01 μM
From the text: 7223, using standard commercially available diagnostic kits (Calbiochem, USA). Assay reagents used were DEVD for caspases 3/7, […] for caspases 8, and LEHD for caspases 9. Moreover, colchicine was used as reference compound that induces this activity of caspases.

[7] = tested on: KB3 (epitheloid lung cancer) cell lines; test: Cell growth inhibition (cytotoxicity), MTS assay, KB3 cell line; type: cell-based
Procedure: Cell growth inhibition was determined by the MTS assay; the number of viable cells were proportional to the extent of formazan production in the presence or absence of drugs. […]

[8] = tested on: LoVo (colon cancer); test: Growth inhibition, MTT colorimetric assay, LoVo; type: cell-based; details: Homo sapiens, LoVo, 72 h; carcinoma; 3 days with drug; means of six values; unit inferred; read-out: IC50 LoVo
Procedure: as §3, with “A549” for “Compounds that met the criteria for activity on KB3 cells were further tested for drug growth inhibitory activity in 5 carcinoma, 6 glioma and 3 melanoma cell lines, shown in Table 4. A549”, “values.” for “values. The standard errors are <5% as compared to the mean values.”

[9] = tested on: U373 (human glioblastoma-astrocytoma); test: Growth inhibition, MTT colorimetric assay, U373; type: cell-based; details: Homo sapiens, U373 MG, 72 h; glioma; 3 days with drug; means of six values; unit inferred; read-out: IC50 U373
Method in brief: as §2

[10] = tested on: orthotopic grafts of human glioblastoma cell lines; test: Orthotopic grafts of human glioblastoma cell lines in brains of nude mice, survival; type: in vivo; details: FIG. 1
Procedure: Additional in vivo experiments were carried on nude mice. Briefly, orthotopic grafts of human glioblastoma cell lines were implanted into the brains of nude mice according to the general methodology of Branle et al., (2002) Cancer, 95, 641-655) and Lefranc et al., (2004) Clin. Can. Res., 10, 8250-8265. […] Results are shown in FIG. 1, illustrating the comparative activity of the PPAR agonist BPM18,708 and the reference drug Temodar™ (temozolomide) the only FDA approved drug for glioblastoma grade IV.

[11] = target: T1, PPARγ (Homo sapiens, UniProt P37231); test: PPAR in vitro cellular (transactivation) assay in MCF-7 cells; type: cell-based
T1 construct: endogenous in cells; host or cells: MCF-7
Procedure: Compounds BPM18,708 and BPM19,107 were selected as representative analogues and tested in a PPAR in vitro cellular assay. Thiazolidinediones rosiglitazone and troglitazone were used as reference PPARγ agonists.
For transfection experiments, MCF-7 cells were cultured in six-well plates in 2 ml DMEM:F12 supplemented with 5% FBS. When cells were 50-60% confluent, siRNA duplexes and/or reporter gene constructs were transfected using OligofectAMINE reagent (Invitrogen). According to methods described in previous studies siRNAs were transfected in each well to give a final concentration of 70 nM. Cells were harvested in 48-56 h after transfection by manual scraping in lysis buffer (Promega). Whole cell extracts were frozen in liquid nitrogen for 30 s, vortexed by 30 s, and centrifuged to give lysates cell lysates from this experiment were analyzed for PPARγ protein by Western blot analysis. Relative intensities of the PPARγ protein were compared with a nonspecific band and results of three replicate studies were determined in the various treatment groups.
Whole cell lysates were extracted using Western sampling buffer. Protein samples were heated at 100 C for 5 min, separated on 10% SDS-PAGE and transferred to polyvinylidene difluoride (PVDF) membrane (Amersham Pharmacia Biotech, Piscataway, N.J.). […]

[12] = tested on: Hs683 (human glioma); test: Growth inhibition, MTT colorimetric assay, HS683; type: cell-based; details: Homo sapiens, Hs 683, 72 h; glioma; 3 days with drug; means of six values; unit inferred; read-out: IC50 HS683
Procedure: as §3, with “A549” for “Compounds that met the criteria for activity on KB3 cells were further tested for drug growth inhibitory activity in 5 carcinoma, 6 glioma and 3 melanoma cell lines, shown in Table 4. A549”, “values.” for “values. The standard errors are <5% as compared to the mean values.”

[13] = tested on: B16-F10 (mouse melanoma); test: Growth inhibition, MTT colorimetric assay, B16F10; type: cell-based; details: Mus musculus, B16-F10, 72 h; melanoma; 3 days with drug; means of six values; unit inferred; read-out: IC50 B16F10
Method in brief: as §2

T1 sequence (P37231 whole entry): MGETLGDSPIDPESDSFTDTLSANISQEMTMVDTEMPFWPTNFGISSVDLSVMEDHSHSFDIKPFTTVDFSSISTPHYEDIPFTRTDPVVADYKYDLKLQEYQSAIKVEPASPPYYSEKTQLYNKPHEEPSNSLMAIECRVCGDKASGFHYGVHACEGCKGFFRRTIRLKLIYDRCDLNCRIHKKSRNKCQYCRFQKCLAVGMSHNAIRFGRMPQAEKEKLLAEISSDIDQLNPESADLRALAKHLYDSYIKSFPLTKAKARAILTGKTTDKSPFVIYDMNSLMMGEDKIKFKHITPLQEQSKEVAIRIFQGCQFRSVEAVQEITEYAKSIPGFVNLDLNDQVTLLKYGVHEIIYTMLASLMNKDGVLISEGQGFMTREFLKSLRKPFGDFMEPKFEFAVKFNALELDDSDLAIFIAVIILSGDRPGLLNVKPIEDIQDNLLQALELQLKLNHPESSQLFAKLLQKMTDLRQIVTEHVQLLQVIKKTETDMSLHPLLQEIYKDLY

SMILES: Oc1ccc(CN(Cc2ccc(C(F)(F)F)cc2)Cc2ccc(O)c3ncccc23)c2cccnc12 [BPM18,708, 5,5′-(4-(trifluoromethyl)benzylazanediyl)bis(methylene)diquinolin-8-ol]
- IC50 [1]: > 10000 nM
- IC50 [2]: 49 nM
- IC50 [3]: 66 nM
- IC50 [4]: 97 nM
- IC50 [5]: 34 nM
- activation of caspases 9 [6]: no effect
- IC50 ([7]; KB3, Table 3A, MTS assay, triplicate, read-out: KB3 IC50): 1 nM
- cytotoxic activity in words ([7]; KB3 cell line, structure-cytotoxicity discussion): most active analogue
- IC50 [8]: 10 nM
- IC50 [9]: 44 nM
- in vivo activity (survival) compared with Temodar [10]: at least as active as Temodar™
- PPARγ ligand/agonist activity in transactivation assays [11]: ligands and agonists of PPARγ
- IC50 [12]: 10 nM
- IC50 [13]: 92 nM
